Test: in vitro
Conditions: human, hela cells, % viability

First: O=C([C@H]1C[C@@H](O)[C@H](O)[C@@H]2N=C(Nc3ccc4c(c3)OCO4)S[C@@H]21)N1CCCCC1 [CBK288953]
Second: O=C(c1cc(-c2ccncc2)nc2ccc(Cl)cc12)N1CCN(Cc2ccc3c(c2)OCO3)CC1 [CBK267765]
The viability at 28.5 h, 10 µM of the first is higher: 108% for the first, 85.4% for the second.

Going from `CCN1CC(C(=O)N2CCN(C)CC2c2ccccc2)CC1=O` (stereo not drawn) [CBK282026] to `CC(Sc1nc2ccccc2c(=O)n1C)C(=O)N1CCOCC1` (stereo not drawn) [CBK305031], the viability at 28.5 h, 10 µM falls from 92.2% to 88.5%.

Compared with `Cc1cccc(CCNC(=O)N2CCN(Cc3ccccn3)CC2)c1` [CBK304057], `COCCNC(=O)N1CCN(Cc2ccccn2)CC1` [CBK304817] is higher in viability at 28.5 h, 10 µM: 103% for the first, 110% for the second.

First: Cc1nc2c(c(=O)[nH]1)CC[C@@H]1CN(C(=O)Cc3cccc(F)c3)C[C@H]21 [CBK284413]
Second: O=C(CC1NC(=O)N(C2CCCCC2)C1=O)Nc1cccc(CCc2ccncc2)c1 (stereo not drawn) [CBK285563]
The viability at 28.5 h, 10 µM of the first is lower: 80.4% for the first, 93.1% for the second.

First: CC(=O)Nc1ccc(-c2ccc(COC3CCN(C(=O)c4ccc(F)cc4F)CC3)cc2)cc1 [CBK149216]
Second: CNC(=O)C1(Cc2ccc(-c3ccccc3)cc2)CCN(C(=O)Cc2ccccc2F)CC1 [CBK285768]
The viability at 28.5 h, 10 µM of the first is higher: 101% for the first, 94.8% for the second.

Compared with `Cc1nc2ccc(NC(=S)N3CCN(c4ccccn4)CC3)cc2nc1C` [CBK267227], `Cc1cc(C)cc(NC(=O)N2CCN(c3nccnc3NS(C)(=O)=O)CC2)c1` [CBK048877] is higher in viability at 28.5 h, 10 µM: 67.1% for the first, 105% for the second.

Going from `O=C(NC(C(=O)O)c1ccccc1)NC12CC3CC(CC(C3)C1)C2` (stereo not drawn) [CBK268313] to `O=C(Cn1cccc(C(=O)NC2CCCCC2)c1=O)NCC1(c2ccccc2Cl)CC1` [CBK286054], the viability at 28.5 h, 10 µM falls from 109% to 94.6%.

First: O=C(CNC(=O)c1ccncc1)N/N=C/c1c(O)ccc2ccccc12 [CBK261378]
Second: Nc1cc2ccccc2c(-c2ccncc2)n1 [CBK085708]
The viability at 28.5 h, 10 µM of the first is lower: 77% for the first, 99.1% for the second.

First: O=C(N[C@@H]1CNCCC[C@H]1O)c1ccc(OCCN2CCCC2)cc1 [CBK289070]
Second: OC12CCCCC1CN(Cc1nc3ccccc3[nH]1)CC2 (stereo not drawn) [CBK282995]
The viability at 28.5 h, 10 µM of the first is higher: 101% for the first, 93.9% for the second.

Going from `Cn1ncc2c(NCc3cccc(Cn4cncn4)c3)ncnc21` [CBK304241] to `c1cncc(CNc2nccnc2-c2ccoc2)c1` [CBK037635], the viability at 28.5 h, 10 µM rises from 89.9% to 96.4%.

First: C[C@@H](Cn1nnc2ccccc21)NC(=O)Cc1ccccc1F [CBK282305]
Second: Cc1ccc(SCCCn2cnc3ccccc32)cc1 [CBK267821G]
The viability at 28.5 h, 10 µM of the first is lower: 86.1% for the first, 93.7% for the second.

Compared with `COc1nccnc1N1CCN(Cc2ccccc2)CC1` [CBK084210], `Cc1nc2ccccc2c(O)c1CN1CCN(C)CC1` [CBK027922] is higher in viability at 28.5 h, 10 µM: 90% for the first, 119% for the second.

First: O=C(NC(=O)N1CCC2(C1)NCCc1c2[nH]c2ccccc12)c1ccccc1 (stereo not drawn) [CBK046985]
Second: CC(C)NC(=O)c1sc2ccccc2c1C1CCN(S(=O)(=O)c2ccccc2)C1 (stereo not drawn) [CBK285927]
The viability at 28.5 h, 10 µM of the first is higher: 94.2% for the first, 83.1% for the second.

Compared with `Cc1ccc2nc(C(=O)NCCSc3nccn3C)cn2c1` [CBK281397], `CN(C)CCCNC(=O)c1cc(-c2ccc(Cl)cc2)[nH]n1` [CBK116564T] is higher in viability at 28.5 h, 10 µM: 93.4% for the first, 98.5% for the second.

First: CCCC/C=C/c1cnc(N)c(N2CCOCC2)n1 [CBK063398]
Second: Cc1cnc(CNC(=O)N2CCN(CCN3CCOCC3)CC2)cn1 [CBK155673]
The viability at 28.5 h, 10 µM of the first is higher: 98.1% for the first, 95.2% for the second.

First: CCOc1cc(-c2nc3sc(CC)cc3c(=O)[nH]2)ccc1OCC(=O)O [CBK298291]
Second: CCc1nn(CC(=O)N(C)C)c(=O)c2cc3sc(C)cc3n12 [CBK284102]
The viability at 28.5 h, 10 µM of the first is lower: 88.4% for the first, 110% for the second.

Compared with `O=C1c2ccccc2CN1c1cccc2ccccc12` [CBK113190], `CN1c2ccccc2C(c2ccccc2)=NS1(=O)=O` [CBK022873] is higher in viability at 28.5 h, 10 µM: 85.3% for the first, 92.1% for the second.

Compared with `S=c1nc(-c2ccco2)n(Cc2ccccc2)c(=S)n1/C(=N/Cc1ccccc1)c1ccco1` [CBK223550], `O=C(OCc1ccccc1)N1CCC(C2OCc3cc(-c4cccc5ncccc45)ccc3O2)CC1` (stereo not drawn) [CBK144644] is lower in viability at 28.5 h, 10 µM: 108% for the first, 94.8% for the second.

Going from `CCS(=O)(=O)Nc1cc(Cl)ccc1C` [CBK111350] to `Cc1ccc(SC(C)C(=O)Nc2cc(Cl)ccc2O)cc1` (stereo not drawn) [CBK268610], the viability at 28.5 h, 10 µM rises from 79.1% to 87.9%.

Going from `Nc1ncnc2c1ncn2[C@H]1C[C@@H](O)[C@@H](CO)O1` [CBK201382] to `Cc1csc2c(C3CCN(C(=O)c4ccnn4C)CC3)nc(C)n12` [CBK285249], the viability at 28.5 h, 10 µM falls from 94.9% to 94.3%.

First: CN1CC[C@@]2(c3cc(F)cc(F)c3)CCC(=O)CC12 (stereo partly drawn) [CBK002500]
Second: O=C1CC(C(=O)Nc2c(Cl)cccc2Cl)C2(CCCCC2)O1 (stereo not drawn) [CBK058445]
The viability at 28.5 h, 10 µM of the first is higher: 110% for the first, 95.9% for the second.

Going from `O=c1ccc2cc(S(=O)(=O)Nc3ccc4[nH]ccc4c3)ccc2o1` [CBK062503] to `O=S(=O)(/C=C/c1ccccc1)Nc1cccc2[nH]ccc12` [CBK155772], the viability at 28.5 h, 10 µM rises from 54.8% to 103%.

Going from `Cn1c(C(C)(C)C)cs/c1=N\NS(=O)(=O)c1ccccc1` [CBK006830B] to `CC(C)N(C(=O)c1ccccc1-c1cnc2nncn2c1)C(C)C` [CBK306701], the viability at 28.5 h, 10 µM falls from 110% to 99.8%.

First: CC(=O)N1CCc2nc(C)nc(NCCn3cccc3)c2CC1 [CBK307130]
Second: CCCCN(C)c1c(CC)nc2ccc(C(=O)N3CCNC(=O)C3)cn12 [CBK145460]
The viability at 28.5 h, 10 µM of the first is lower: 83.7% for the first, 87.9% for the second.

Going from `Cc1sc2nc(C3CC3)n(C3CCNCC3)c(=O)c2c1C` [CBK284228] to `COc1ccc(Cl)cc1NC(=O)CC1NC2CCCCC2NC1=O` (stereo not drawn) [CBK267318], the viability at 28.5 h, 10 µM falls from 92.3% to 80.4%.

Compared with `CCOC(=O)N1CCC(NC(=O)N2CCC(C(=O)O)CC2)CC1` [CBK156080], `Cc1ccc(C2(C(=O)N3CCCC3)CCN(S(=O)(=O)c3ccc(C)cc3)CC2)cc1` [CBK008752] is higher in viability at 28.5 h, 10 µM: 95.2% for the first, 102% for the second.

First: CC(C)c1ccc(-c2csc(Nc3cccc(C(=O)O)c3)n2)cc1 [CBK299880]
Second: CC(C)Oc1ccc(-c2cc(C(=O)NCc3ccncc3)c3ccccc3n2)cc1 [CBK293957]
The viability at 28.5 h, 10 µM of the first is lower: 104% for the first, 106% for the second.

First: COc1ccc(C(=O)NCC2(c3ccc(OC)c(OC)c3)CCCCC2)c(OC)c1 [CBK067049]
Second: COc1cc(-c2nc(S(=O)(=O)c3ccccc3)c(N3CCOCC3)o2)cc(OC)c1OC [CBK074539]
The viability at 28.5 h, 10 µM of the first is lower: 82.8% for the first, 90.1% for the second.

Compared with `O=C(c1ccc(-c2cncc(-c3ccc(O)cc3)n2)cc1Cl)N1CCOCC1` [CBK123790], `Nc1ccc(-c2cn3ccnc3c(Nc3ccc(Cl)cc3)n2)cc1` [CBK066453] is lower in viability at 28.5 h, 10 µM: 94% for the first, 87% for the second.

Going from `COCCNC(=O)Nc1ccc2nc(-c3ccccn3)c(-c3ccccn3)nc2c1` [CBK265151] to `COCCNC(=O)C1(O)c2ccccc2NC(=O)N1c1cccc(OC)c1` (stereo not drawn) [CBK288589], the viability at 28.5 h, 10 µM rises from 89.9% to 110%.

Compared with `N#Cc1c(NC(=O)c2cccc(S(=O)(=O)Nc3ccc(C(=O)O)cc3)c2)sc2c1CCCC2` [CBK266762], `NS(=O)(=O)c1ccc(NC(=O)c2cc3c(n(-c4ccccc4)c2=O)CCCC3=O)cc1` [CBK266467] is higher in viability at 28.5 h, 10 µM: 106% for the first, 115% for the second.

Compared with `O=[N+]([O-])c1cccnc1Oc1cccc(Cl)c1Cl` [CBK002596], `Cc1c(NC(=S)NC(=O)C(C)C)cccc1-c1nc2ncccc2o1` [CBK269712] is higher in viability at 28.5 h, 10 µM: 98% for the first, 98.3% for the second.

Going from `CCc1nc2ccc(C(=O)N(C)CCN(C)C)cn2c1N(C)C(=O)C1CCCCC1` [CBK145771] to `CCn1c(C)nc2cc(NC(=O)CC3CCCCO3)ccc21` (stereo not drawn) [CBK281859], the viability at 28.5 h, 10 µM rises from 93.8% to 98.2%.

First: O=C(Cc1ccc(-c2ccccc2)cc1)NCc1nnc(-c2cccs2)o1 [CBK286295]
Second: COc1ccc(-c2nc(NC(=O)Cc3ccc(S(C)(=O)=O)cc3)cnc2-c2cccc(C)c2)cc1 [CBK037525]
The viability at 28.5 h, 10 µM of the first is higher: 94.3% for the first, 88.2% for the second.

Going from `CN(Cc1nc(-c2ccncc2)no1)S(=O)(=O)c1ccc(Br)cc1` [CBK268598] to `CCOc1ccccc1-c1noc(CSc2nnc(-c3ccncc3)n2-c2cccc(C)c2)n1` [CBK269076], the viability at 28.5 h, 10 µM rises from 94.6% to 104%.

Going from `COc1ccc(C)cc1S(=O)(=O)N1CCc2c(CN3CCOCC3)cccc21` [CBK113630T] to `O=S(=O)(c1ccc(C(F)(F)F)cc1Cl)N1CCN(Cc2cccc(Br)c2)CC1` [CBK063163], the viability at 28.5 h, 10 µM falls from 86.8% to 83.7%.

Going from `CNS(=O)(=O)c1cc(C(=O)NCc2ccco2)ccc1OC` [CBK270180] to `COc1cc(-c2nc3ncccc3cc2NS(C)(=O)=O)cc(OC)c1OC` [CBK085697], the viability at 28.5 h, 10 µM falls from 103% to 92.7%.

Compared with `Cc1ccc2[nH]c(Cc3ccc(NC(=O)c4cc(=O)n(C)c5ccccc45)cc3)nc2c1` [CBK285815], `Cc1c(NC(=O)CSc2nnc3c4ccccc4n(C(C)C)c3n2)c(=O)n(-c2ccccc2)n1C` [CBK263916] is higher in viability at 28.5 h, 10 µM: 98.5% for the first, 105% for the second.

Going from `Ic1ccc(NCc2cn3ccccc3n2)cc1` [CBK058563] to `CC(C)(C)c1ccc(/C=N/NC(=O)CCSc2ccc(Cl)cc2)cc1` [CBK263696], the viability at 28.5 h, 10 µM rises from 91.4% to 105%.

Going from `CCOc1ccc(S(=O)(=O)N2CCN(CCCC#N)CC2)c2cccnc12` [CBK063046] to `COc1cc(OC)nc(C(NC(=O)C2CCN(CCN3C(=O)c4ccccc4C3=O)CC2)c2ccc(F)cc2)n1` (stereo not drawn) [CBK148083], the viability at 28.5 h, 10 µM rises from 91.6% to 103%.

Going from `Cc1ccc(S(=O)(=O)OCCOS(=O)(=O)c2ccc(C)cc2)cc1` [CBK260986] to `O=C(O)c1ccc2c(c1)C(=O)N(c1nc(-c3cccnc3)n[nH]1)C2=O` [CBK268284], the viability at 28.5 h, 10 µM rises from 96.2% to 100%.

Compared with `CC(C)C(=O)N(C)c1nnc(-c2cccnc2)s1` [CBK007554], `CN(C)Cc1cc(C(C)(C)C)cc(CN(C)C)c1O` [CBK266994] is lower in viability at 28.5 h, 10 µM: 114% for the first, 98.4% for the second.

Same assay, conditions: human, hela cells, % viability, bulk resorufin, single well

Going from `CSc1cc(C)c2c(c1)COC1(CCN(C(=O)Cc3ccccc3)CC1)O2` [CBK061099] to `CC(C)(C)OC(=O)N1CCC2(CC1)OCc1cc(-c3ccc(S(C)(=O)=O)nc3)ccc1O2` [CBK159619], the viability at 28.5 h, 10 µM falls from 93.4% to 83.6%.

`CCOc1cc(C=C2C(=O)NC(=S)NC2=O)ccc1OCc1c(C)no[n+]1[O-]` [CBK263468] gave a viability at 28.5 h, 10 µM of 99.3%.

Reference: article PMC12040169 (PLOS Biology, 2025)
